US20070032417A1, “Peptides and therapeutic uses thereof” (priority 2002, published 2007)
Read-outs that look alike come from different tables or passages of the source. *1 amine or outer side, *2 acyl side, *3 side chain or, on linkers, in order; H or OH if unused. Where a SMILES comes first, the peptide text is derived from it. Bridges are numbered along the chain shown (N, C = ends). [ ]: non-standard residue; d: D form. Hexamethylenediamine = C(CCCN[*:2])CCN[*:1]; NH(CH2)5NH = C(CCN[*:1])CCN[*:2]; Cit = NC(=O)NCCC[C@H](N)C(=O)O; X1 = O=C(CN[*:1])NCCN[*:2]

Legend:
[1] = molecular target: T1, GST tagged Bcl w delta C29 protein (Homo sapiens, UniProt Q92843); assay: Alphascreen competition with Bim26mer, GST detection system; format: binding; settings: for change in binding affinity, in words / decrease in binding affinity: Bcl-w ΔC29, compared to the linear 16-mer
T1 sequence (Q92843 1-164 limits assumed): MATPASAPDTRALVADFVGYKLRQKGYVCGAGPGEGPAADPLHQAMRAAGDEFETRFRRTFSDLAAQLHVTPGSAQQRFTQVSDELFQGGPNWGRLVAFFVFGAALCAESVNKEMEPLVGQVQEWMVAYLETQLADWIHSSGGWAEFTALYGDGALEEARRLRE

Bcl-2 ΔC22 = Bcl-2 ΔC22 (Homo sapiens, UniProt P10415); assay: Competition assay using biotinylated Bim-BH3 peptide, Bcl-2 ΔC22; format: binding; settings: for IC50: competition with biotinylated Bim-BH3 peptide; for affinity for Bcl-2 and Bcl-xL over the unconstrained 12-mer, in words: compared to the unconstrained 12-mer
Text: The results are shown below:

[2] = molecular target: T2, 6-His tagged Bcl w delta C10 protein (Homo sapiens, UniProt Q92843); assay: Alphascreen competition with Bim26mer, Hexa-His detection system; format: binding; settings: competition with biotinylated Bim-BH3 peptide; read-out: IC50 (nM) Bcl-w ΔC10
T2 sequence (Q92843 1-183 limits assumed): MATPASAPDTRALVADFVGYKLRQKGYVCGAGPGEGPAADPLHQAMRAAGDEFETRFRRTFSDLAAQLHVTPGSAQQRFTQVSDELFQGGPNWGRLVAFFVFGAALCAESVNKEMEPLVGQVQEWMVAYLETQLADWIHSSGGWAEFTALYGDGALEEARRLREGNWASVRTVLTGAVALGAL
Text: Alphascreen (Amplified Luminsecent Proximity Homogenous Assay) is a bead based technology which measures a biological interaction between molecules. The assay consists of two hydrogel coated beads which, when bought into close proximity by a binding interaction, allow a transfer of singlet oxygen from a donor bead to an acceptor bead.
Upon binding a photosensitiser in the donor bead converts ambient oxygen to a more excited singlet state. This singlet oxygen then diffuses across to react with a chemiluminescer in the acceptor bead. Fluorophores within the same bead are activated, resulting in the emission of light.
Screening of the conformationally constrained peptides was performed using the Hexa-His detection system. Non biotinylated peptides dissolved in DMSO were titrated into the assay which consisted of 6-His tagged Bcl w delta C10 protein (24 nM Final concentration) and Biotinylated Bim BH3-26 peptide, Biotin-[…] [SEQ ID NO: 40] (1.5 nM Final concentration). To this reaction mix 6His tagged (Nickel Chelate) acceptor beads and Streptavidin coated donor beads, both at 10 ug/ml Final concentration, were added.
Assay buffer contained 50 mM Hepes pH 7.4, 10 mM DTT, 100 mM NaCl, 0.05% Tween and 1 mg/ml BSA. Bead dilution buffer contained 50 mM Tris, pH 7.5, 0.01% Tween and 1 mg/ml BSA. The final DMSO concentration in the assay was 1%. Assays were performed in 384 well white Optiplates and analysed on the Perkin Elmer Fusion plate reader (Ex680, Em520-620 […]).

[3] = Circular dichroism, alpha-helical content of peptides; format: physicochemical; settings: 30% aqueous trifluoroethanol
Description: Circular dichroism spectra were obtained using a Jasco Model J-710 spetropolarimeter at 20° C. using the following parameters: path length, 2 mm; step resolution, 0.1 nm; speed, 20 nm/min; accumulation, 4; response, 1 second; bandwidth, 1.0 nm. The peptides were analysed at a concentration of 0.5 mg/mL in 30% aqueous TFE. The alpha-helical content of the peptides were determined by methods described in Yang et al (1986), involving comparisons of spectra with model helical peptides.

[4] = molecular target: GST tagged Bcl w delta C29 protein (UniProt Q92843); assay: AlphaScreen competition with biotinylated Bim BH3-26 peptide
[5] = substituted 16-mers, Example 9, read-out: IC50 nM Bcl-w ΔC29
[6] = Puma and Bmf peptides, Example 10, read-out: IC50 nM Bcl-w ΔC29
[7] = competition with biotinylated Bim-BH3 peptide, 12-mers, Example 7, read-out: IC50 (nM) Bcl-w ΔC29

With Ac-AWIAQELRRIGDEFNA-NH2 [O] the “change in binding affinity, in words” value [1] was “drop in binding” and the IC50 [1, 5] was 22 nM.

For Ac-IWIAQELRRAGDEFNA-NH2 [Peptide K], the “decrease in binding affinity” value [1] was 3 fold and the IC50 [1, 5] was 7.3 nM.

With Ac-VQIARKLQAIADQFHR-NH2 [Bmf] the IC50 [1, 6] was 0.25 nM.

For Ac-IWIAQELRRIGDEANA-NH2 [Peptide L], the “decrease in binding affinity” value [1] was 1,000 fold and the IC50 [1, 5] was 3500 nM.

“Ac-IAQELRRIGDEF-NH2 [Linear 12mer, reference compound]” gave an IC50 (Bcl-2 ΔC22) of 240000 nM, an IC50 [2] of 870 nM and an IC50 [1, 7] of 4700 nM. The “% Helicity” value [3] was 9%.

Molecule Ac-REIGAQLRRMADDLNA-NH2 [Puma] has an IC50 [1, 6] of 52 nM.

In the case of Ac-IAIAQELRRIGDEFNA-NH2 [P], the “change in binding affinity, in words” value [1] is reported as “drop in binding” and the IC50 [1, 5] is reported as 42 nM.

For Ac-IWIAQELRRIGDEFNN-NH2 [Peptide U], the “decrease in binding affinity” value [1] was “two” and the IC50 [1, 5] was 5.8 nM.

`CC[C@H](C)[C@H](NC(C)=O)C(=O)N[C@@H](Cc1c[nH]c2ccccc12)C(=O)N[C@H](C(=O)N[C@@H](C)C(=O)N[C@@H](CCC(N)=O)C(=O)N[C@H]1CCC(=O)NCCCCCNC(=O)CC[C@@H](C(=O)N[C@@H](Cc2ccccc2)C(=O)N[C@@H](CC(N)=O)C(=O)N[C@@H](C)C(N)=O)NC(=O)[C@H](CC(=O)O)NC(=O)CNC(=O)[C@H]([C@@H](C)CC)NC(=O)[C@H](CCCNC(=N)N)NC(=O)[C@H](CCCNC(=N)N)NC(=O)[C@H](CC(C)C)NC1=O)[C@@H](C)CC` [E] (Ac-IWIAQELRRIGDEFNA-NH2; linker 6-13 via NH(CH2)5NH) gave an IC50 ([1]; values repeated in text, read-out: binding of the constrained peptide to Bcl-w) of 0.5 nM.

In the case of `CC[C@H](C)[C@H](NC(C)=O)C(=O)N[C@@H](C)C(=O)N[C@@H](CCC(N)=O)C(=O)N[C@H]1CCC(=O)NCC(=O)NCCNC(=O)CC[C@@H](C(=O)N[C@@H](Cc2ccccc2)C(N)=O)NC(=O)[C@H](CC(=O)O)NC(=O)CNC(=O)[C@H]([C@@H](C)CC)NC(=O)[C@H](CCCNC(=N)N)NC(=O)[C@H](CCCNC(=N)N)NC(=O)[C@H](CC(C)C)NC1=O` [D] (Ac-IAQELRRIGDEF-NH2; linker 4-11 via X1), the IC50 (Bcl-2 ΔC22) is reported as 6900 nM, the IC50 [2] is reported as 40 nM and the IC50 [1, 7] is reported as 160 nM. The “% Helicity” value [3] was 16%.

In the case of Ac-IFIAQELRRIGDEFNA-NH2 [N], the “change in binding affinity, in words” value [1] is reported as “drop in binding” and the IC50 [1, 5] is reported as 11 nM.

With `CC[C@H](C)[C@H](NC(C)=O)C(=O)N[C@@H](C)C(=O)N[C@@H](CCC(N)=O)C(=O)N[C@H]1CCC(=O)NCCCCCNC(=O)CC[C@@H](C(=O)N[C@@H](Cc2ccccc2)C(N)=O)NC(=O)[C@H](CC(=O)O)NC(=O)CNC(=O)[C@H]([C@@H](C)CC)NC(=O)[C@H](CCCNC(=N)N)NC(=O)[C@H](CCCNC(=N)N)NC(=O)[C@H](CC(C)C)NC1=O` [Peptide B, Acetyl-IAQ(E1)LRRIGD(E2)F-amide] (Ac-IAQELRRIGDEF-NH2; linker 4-11 via NH(CH2)5NH) the “affinity for Bcl-2 and Bcl-xL over the unconstrained 12-mer, in words” value (Bcl-2 ΔC22) was “outstanding increases in affinity”, the IC50 (Bcl-2 ΔC22) was 290 nM and the IC50 [2] was 65 nM. For the same molecule, the IC50 [1, 7] was 150 nM and the “% Helicity” value [3] was 28%.

Ac-IWIAQQLRRIGDQFNA-NH2 [H] gave an IC50 [1, 5] of 3.3 nM.

`CC[C@H](C)[C@H](NC(=O)[C@@H]1CCC(=O)NCCCCCNC(=O)CC[C@H](NC(C)=O)C(=O)N[C@@H]([C@@H](C)CC)C(=O)N[C@@H](C)C(=O)N[C@@H](CCC(N)=O)C(=O)N[C@@H](CCC(=O)O)C(=O)N[C@@H](CC(C)C)C(=O)N[C@@H](CCCNC(=N)N)C(=O)N1)C(=O)NCC(=O)N[C@@H](CC(=O)O)C(=O)N[C@@H](CCC(=O)O)C(=O)N[C@@H](Cc1ccccc1)C(N)=O` [A, Ac-E-IAQELR-E-IGDEF-NH2] (Ac-EIAQELREIGDEF-NH2; linker 1-8 via NH(CH2)5NH) showed an IC50 (Bcl-2 ΔC22) of 26000 nM, an IC50 [2] of 2600 nM and an IC50 [1, 7] of 1800 nM. The “% Helicity” value [3] was 33%.

Ac-IWIAQELRRIGDEFAN-NH2 [Peptide R] gave an IC50 [1, 5] of 12 nM.

With Ac-IRIAQELRRIGDEFNA-NH2 [Q] the “change in binding affinity, in words” value [1] was “drop in binding” and the IC50 [1, 5] was 17 nM.

With `CC[C@H](C)[C@H](NC(=O)[C@H](C)NC(=O)[C@H](CCC(N)=O)NC(C)=O)C(=O)N[C@@H](C)C(=O)N[C@@H](CCC(N)=O)C(=O)N[C@H]1CCC(=O)NCCCCCNC(=O)CC[C@@H](C(=O)N[C@@H](Cc2ccccc2)C(=O)N[C@@H](CC(N)=O)C(=O)N[C@@H](C)C(N)=O)NC(=O)[C@H](CC(=O)O)NC(=O)CNC(=O)[C@H]([C@@H](C)CC)NC(=O)[C@H](CCCNC(=N)N)NC(=O)[C@H](CCCNC(=N)N)NC(=O)[C@H](CC(C)C)NC1=O` [Peptide G, Ac-QAIAQZLRRIGDZFNA-NH2] (Ac-QAIAQELRRIGDEFNA-NH2; linker 6-13 via NH(CH2)5NH) the IC50 [1] was 2.4 nM.

For Ac-IWAAQELRRIGDEFNA-NH2 [Peptide I], the “change in binding affinity, in words” value [1] was “slight decrease in binding affinity”, the “decrease in binding affinity” value [1] was 100 fold and the IC50 [1, 5] was 360 nM.

For Ac-IWIAQELRRIGDEFAA-NH2 [Peptide S], the “change in binding affinity, in words” value [1] was “only slight, if any, loss of binding affinity” and the IC50 [1, 5] was 3.3 nM.

With `CC[C@H](C)[C@H](NC(C)=O)C(=O)N[C@@H](C)C(=O)N[C@@H](CCC(N)=O)C(=O)N[C@H]1CCC(=O)NCCCCCCNC(=O)CC[C@@H](C(=O)N[C@@H](Cc2ccccc2)C(N)=O)NC(=O)[C@H](CC(=O)O)NC(=O)CNC(=O)[C@H]([C@@H](C)CC)NC(=O)[C@H](CCCNC(=N)N)NC(=O)[C@H](CCCNC(=N)N)NC(=O)[C@H](CC(C)C)NC1=O` [C, Ac-IAQ-E-LRRIGD-E-F-NH2] (Ac-IAQELRRIGDEF-NH2; linker 4-11 via Hexamethylenediamine) the “affinity for Bcl-2 and Bcl-xL over the unconstrained 12-mer, in words” value (Bcl-2 ΔC22) was “outstanding increases in affinity”, the IC50 (Bcl-2 ΔC22) was 2600 nM and the IC50 [2] was 230 nM. The IC50 [1, 7] was 120 nM and the “% Helicity” value [3] was 39%.

For Ac-IWIAQEARRIGDEFNA-NH2 [Peptide J], the “decrease in binding affinity” value [1] was “about 1000 fold” and the IC50 [1, 5] was 3700 nM.

Work on Ac-IWAAQEARRAGDEANA-NH2 [M] yielded an IC50 [1, 5] of 64000 nM.

“Ac-IWIAQELRRIGDEFNA-NH2 [linear 16-mer, reference compound]” showed an IC50 ([1]; competition with biotinylated BIM-BH3 peptide, 16-mers, Example 8, read-out: IC50 (nM) Bcl-w ΔC29) of 2.5 nM.

Work on `CC[C@H](C)[C@H](NC(C)=O)C(=O)N[C@@H](Cc1c[nH]c2ccccc12)C(=O)N[C@H](C(=O)N[C@@H](C)C(=O)N[C@@H](CCC(N)=O)C(=O)N[C@@H](CCC(=O)O)C(=O)N[C@@H](CC(C)C)C(=O)N[C@@H](CCCNC(N)=O)C(=O)N[C@@H](CCCNC(N)=O)C(=O)N[C@H](C(=O)NCC(=O)N[C@@H](CC(=O)O)C(=O)N[C@@H](CCC(=O)O)C(=O)N[C@@H](Cc1ccccc1)C(=O)N[C@@H](CC(N)=O)C(=O)N[C@@H](C)C(N)=O)[C@@H](C)CC)[C@@H](C)CC` [Peptide T] (Ac-IWIAQEL[Cit][Cit]IGDEFNA-NH2) yielded an IC50 [1, 5] of 20 nM.

For Ac-IWIAQELRRAGDEFNA-NH2 [Peptide K (linear), Ac-…-NH2], the fold decrease in affinity (against the linear 16-mer) [4] was 3 fold.

Ac-IWAAQEARRAGDEANA-NH2 [Peptide M (linear), Ac-…-NH2] showed a fold decrease in binding affinity (against the linear 16-mer) [4] of 25000 fold.

Work on Ac-IWIAQEARRIGDEFNA-NH2 [Peptide J (linear), Ac-…-NH2] yielded a fold decrease in affinity (against the linear 16-mer) [4] of 1000 fold.

Ac-IWIAQELRRIGDEANA-NH2 [Peptide L (linear), Ac-…-NH2] showed a fold decrease in affinity (against the linear 16-mer) [4] of 1000 fold.

Molecule Ac-IWAAQELRRIGDEFNA-NH2 [Peptide I (linear), Ac-…-NH2] has a fold decrease in binding affinity (against the linear 16-mer) [4] of 100 fold.

With Ac-IWIAQELRRIGDEFNN-NH2 [Peptide U (linear), Ac-…-NH2] the fold loss of binding affinity (against the linear 16-mer) [4] was 2 fold.
